This note sets out measurements from paper PMC12748989 (Nature Communications, 2025).

SMILES strings stand for the structures.

One assay relates to PBMC. The note with it: 12.5 µM.

As for `CC[C@H](C)[C@H](N)C(=O)N[C@@H](CO)C(=O)N[C@@H](CC(C)C)C(=O)N[C@@H](CCCCN)C(=O)N[C@@H](C)C(=O)N[C@@H](CC(C)C)C(=O)N[C@@H](C)C(=O)N[C@@H](C)C(=O)N[C@@H](CC(C)C)C(=O)N[C@@H](C)C(=O)N[C@@H](CCCCN)C(=O)N[C@@H](CCCCN)C(=O)N[C@H](C(=O)N[C@@H](CC(C)C)C(N)=O)[C@@H](C)CC` [S2], the “Average (percentage cell inhibition), Mastoparan PBMC” value in the assay on PBMC is 20.6714%. Also, the “Average (percentage cell inhibition), Dmastoparan MDA-MB231 12.5uM” value in the assay on MDA-MB-231 cells was determined as 39.9159%.
On the same counts, the results for `CC[C@H](C)[C@H](N)C(=O)N[C@@H](CC(N)=O)C(=O)N[C@@H](CO)C(=O)N[C@@H](CCCCN)C(=O)N[C@@H](C)C(=O)N[C@@H](CC(C)C)C(=O)N[C@@H](C)C(=O)N[C@@H](C)C(=O)N[C@@H](CC(C)C)C(=O)N[C@@H](C)C(=O)N[C@@H](CCCCN)C(=O)N[C@@H](CCCCN)C(=O)N[C@H](C(=O)N[C@@H](CC(C)C)C(N)=O)[C@@H](C)CC` [S3] are 5.178% and 12.1099%.
With `CC[C@H](C)[C@H](N)C(=O)N[C@@H](CC(N)=O)C(=O)N[C@@H](CC(C)C)C(=O)N[C@@H](CO)C(=O)N[C@@H](C)C(=O)N[C@@H](CC(C)C)C(=O)N[C@@H](C)C(=O)N[C@@H](C)C(=O)N[C@@H](CC(C)C)C(=O)N[C@@H](C)C(=O)N[C@@H](CCCCN)C(=O)N[C@@H](CCCCN)C(=O)N[C@H](C(=O)N[C@@H](CC(C)C)C(N)=O)[C@@H](C)CC` [S4], the “Average (percentage cell inhibition), Mastoparan PBMC” value with PBMC stood at 7.7%. Also, the “Average (percentage cell inhibition), Dmastoparan MDA-MB231 12.5uM” value in the assay with MDA-MB-231 cells is recorded as 28.0357%.
The matching figures for `CC[C@H](C)[C@H](N)C(=O)N[C@@H](CC(N)=O)C(=O)N[C@@H](CC(C)C)C(=O)N[C@@H](CCCCN)C(=O)N[C@@H](CO)C(=O)N[C@@H](CC(C)C)C(=O)N[C@@H](C)C(=O)N[C@@H](C)C(=O)N[C@@H](CC(C)C)C(=O)N[C@@H](C)C(=O)N[C@@H](CCCCN)C(=O)N[C@@H](CCCCN)C(=O)N[C@H](C(=O)N[C@@H](CC(C)C)C(N)=O)[C@@H](C)CC` [S5]: 9.929% and 26.0666%.
On to `CC[C@H](C)[C@H](N)C(=O)N[C@@H](CC(N)=O)C(=O)N[C@@H](CC(C)C)C(=O)N[C@@H](CCCCN)C(=O)N[C@@H](C)C(=O)N[C@@H](CO)C(=O)N[C@@H](C)C(=O)N[C@@H](C)C(=O)N[C@@H](CC(C)C)C(=O)N[C@@H](C)C(=O)N[C@@H](CCCCN)C(=O)N[C@@H](CCCCN)C(=O)N[C@H](C(=O)N[C@@H](CC(C)C)C(N)=O)[C@@H](C)CC` [S6], for which the “Average (percentage cell inhibition), Mastoparan PBMC” value with PBMC is recorded as -17.608%. Further, the “Average (percentage cell inhibition), Dmastoparan MDA-MB231 12.5uM” value with MDA-MB-231 cells is recorded as 29.7699%.
Turning to `CC[C@H](C)[C@H](N)C(=O)N[C@@H](CC(N)=O)C(=O)N[C@@H](CC(C)C)C(=O)N[C@@H](CCCCN)C(=O)N[C@@H](C)C(=O)N[C@@H](CC(C)C)C(=O)N[C@@H](CO)C(=O)N[C@@H](C)C(=O)N[C@@H](CC(C)C)C(=O)N[C@@H](C)C(=O)N[C@@H](CCCCN)C(=O)N[C@@H](CCCCN)C(=O)N[C@H](C(=O)N[C@@H](CC(C)C)C(N)=O)[C@@H](C)CC` [S7], the “Average (percentage cell inhibition), Mastoparan PBMC” value in the assay on PBMC is listed as -4.112%. Further, the “Average (percentage cell inhibition), Dmastoparan MDA-MB231 12.5uM” value in the assay on MDA-MB-231 cells is listed as 34.1343%.
The matching figures for `CC[C@H](C)[C@H](N)C(=O)N[C@@H](CC(N)=O)C(=O)N[C@@H](CC(C)C)C(=O)N[C@@H](CCCCN)C(=O)N[C@@H](C)C(=O)N[C@@H](CC(C)C)C(=O)N[C@@H](C)C(=O)N[C@@H](CO)C(=O)N[C@@H](CC(C)C)C(=O)N[C@@H](C)C(=O)N[C@@H](CCCCN)C(=O)N[C@@H](CCCCN)C(=O)N[C@H](C(=O)N[C@@H](CC(C)C)C(N)=O)[C@@H](C)CC` [S8]: -6.033% and 32.8816%.
The matching figures for `CC[C@H](C)[C@H](N)C(=O)N[C@@H](CC(N)=O)C(=O)N[C@@H](CC(C)C)C(=O)N[C@@H](CCCCN)C(=O)N[C@@H](C)C(=O)N[C@@H](CC(C)C)C(=O)N[C@@H](C)C(=O)N[C@@H](C)C(=O)N[C@@H](CO)C(=O)N[C@@H](C)C(=O)N[C@@H](CCCCN)C(=O)N[C@@H](CCCCN)C(=O)N[C@H](C(=O)N[C@@H](CC(C)C)C(N)=O)[C@@H](C)CC` [S9]: -4.8979% and 27.2293%.
On the same counts, the results for `CC[C@H](C)[C@H](N)C(=O)N[C@@H](CC(N)=O)C(=O)N[C@@H](CC(C)C)C(=O)N[C@@H](CCCCN)C(=O)N[C@@H](C)C(=O)N[C@@H](CC(C)C)C(=O)N[C@@H](C)C(=O)N[C@@H](C)C(=O)N[C@@H](CC(C)C)C(=O)N[C@@H](CO)C(=O)N[C@@H](CCCCN)C(=O)N[C@@H](CCCCN)C(=O)N[C@H](C(=O)N[C@@H](CC(C)C)C(N)=O)[C@@H](C)CC` [S10] are 1.271% and 30.5653%.
As to `CC[C@H](C)[C@H](N)C(=O)N[C@@H](CC(N)=O)C(=O)N[C@@H](CC(C)C)C(=O)N[C@@H](CCCCN)C(=O)N[C@@H](C)C(=O)N[C@@H](CC(C)C)C(=O)N[C@@H](C)C(=O)N[C@@H](C)C(=O)N[C@@H](CC(C)C)C(=O)N[C@@H](C)C(=O)N[C@@H](CO)C(=O)N[C@@H](CCCCN)C(=O)N[C@H](C(=O)N[C@@H](CC(C)C)C(N)=O)[C@@H](C)CC` [S11], in the assay on PBMC, the “Average (percentage cell inhibition), Mastoparan PBMC” value is 3.714%. Besides, the “Average (percentage cell inhibition), Dmastoparan MDA-MB231 12.5uM” value in the assay with MDA-MB-231 cells was 28.2862%.
On the same counts, the results for `CC[C@H](C)[C@H](N)C(=O)N[C@@H](CC(N)=O)C(=O)N[C@@H](CC(C)C)C(=O)N[C@@H](CCCCN)C(=O)N[C@@H](C)C(=O)N[C@@H](CC(C)C)C(=O)N[C@@H](C)C(=O)N[C@@H](C)C(=O)N[C@@H](CC(C)C)C(=O)N[C@@H](C)C(=O)N[C@@H](CCCCN)C(=O)N[C@@H](CO)C(=O)N[C@H](C(=O)N[C@@H](CC(C)C)C(N)=O)[C@@H](C)CC` [S12] are 1.96% and 38.966%.
`CC[C@H](C)[C@H](N)C(=O)N[C@@H](CC(N)=O)C(=O)N[C@@H](CC(C)C)C(=O)N[C@@H](CCCCN)C(=O)N[C@@H](C)C(=O)N[C@@H](CC(C)C)C(=O)N[C@@H](C)C(=O)N[C@@H](C)C(=O)N[C@@H](CC(C)C)C(=O)N[C@@H](C)C(=O)N[C@@H](CCCCN)C(=O)N[C@@H](CCCCN)C(=O)N[C@@H](CO)C(=O)N[C@@H](CC(C)C)C(N)=O` [S13]: in the assay on PBMC, the “Average (percentage cell inhibition), Mastoparan PBMC” value is reported as -6.27%. Besides, the “Average (percentage cell inhibition), Dmastoparan MDA-MB231 12.5uM” value in the assay on MDA-MB-231 cells is on record as 39.6113%.
On to `CC[C@H](C)[C@H](N)C(=O)N[C@@H](CC(N)=O)C(=O)N[C@@H](CC(C)C)C(=O)N[C@@H](CCCCN)C(=O)N[C@@H](C)C(=O)N[C@@H](CC(C)C)C(=O)N[C@@H](C)C(=O)N[C@@H](C)C(=O)N[C@@H](CC(C)C)C(=O)N[C@@H](C)C(=O)N[C@@H](CCCCN)C(=O)N[C@@H](CCCCN)C(=O)N[C@H](C(=O)N[C@@H](CO)C(N)=O)[C@@H](C)CC` [S14], for which the “Average (percentage cell inhibition), Mastoparan PBMC” value in the assay with PBMC is listed as -3.76%. Also, in the assay on MDA-MB-231 cells, the “Average (percentage cell inhibition), Dmastoparan MDA-MB231 12.5uM” value was 38.8299%.
